Assay results from patent US7186701B2, “Dehydrating agent and method for dehydrating moist article using the agent and dehydrated article obtained by the method” (Kabushiki Kaisha Hayashibara Seibutsu Kagaku Kenkyujo, priority 2001, dated 2007).

Key:
[1] = test system: α-isomaltosylglucosaccharide-forming enzyme; test: Specificity of transfer acceptor (C9 enzyme); assay type: biochemical, Bacillus globisporus C9 strain; design: key: −: no saccharide-transferred product was detected through transferring reaction to acceptor; ±: a saccharide-transferred product was detected in an amount of less than one percent through transfer reaction to acceptor; +: a saccharide-transferred product was detected in an amount of at least one percent but less than ten percent through transferring reaction to acceptor; ++: a saccharide-transferred product was detected in an amount of at least ten percent through transferring reaction to acceptor; conditions: acceptor 1.6%, PINE-DEX #100 donor 4%, one unit/g donor, 30° C., pH 6.0, 24 hours
Procedure: (§1) A variety of saccharides were tested whether they could be used as transferring-acceptors for the α-isomaltosylglucosaccharide-forming enzyme. A solution of D-glucose, D-xylose, L-xylose, D-galactose, D-fructose, D-mannose, D-arabinose, D-fucose, L-sorbose, L-rhamnose, methyl-α-glucopyranoside, methyl-β-glucopyranoside, N-acetyl-glucosamine, sorbitol, α,α-trehalose, isomaltose, isomaltotriose, cellobiose, gentibiose, maltitol, lactose, sucrose, α-cyclodextrin, β-cyclodextrin, or γ-cyclodextrin was prepared. […] The reaction mixtures after the enzymatic reactions were analyzed on gas chromatography (abbreviated as “GLC” hereinafter) for monosaccharides and disaccharides as acceptors, and on HPLC for trisaccharides and higher saccharides as acceptors to confirm whether these saccharides could be used as their transfer acceptors. In the case of performing GLC, the following apparatuses and conditions were used: […] In the case of HPLC analysis, the apparatuses and conditions used were: HPLC apparatus, “CCPD” commercialized by Tosoh Corporation, Tokyo, Japan; column, “ODS-AQ-303” commercialized by YMC Co., Ltd., Tokyo, Japan; eluent, water at a flow rate of 0.5 ml/min; and detection, a differential refractometer.

[2] = test system: α-isomaltosylglucosaccharide-forming enzyme; test: Specificity of transfer acceptor (C11 enzyme); assay type: biochemical, Bacillus globisporus C11 strain; design: key: −: no saccharide-transferred product was detected through transferring reaction to acceptor; ±: a saccharide-transferred product was detected in an amount of less than one percent through transfer reaction to acceptor; +: a saccharide-transferred product was detected in an amount of at least one percent but less than ten percent through transferring reaction to acceptor; ++: a saccharide-transferred product was detected in an amount of at least ten percent through transferring reaction to acceptor; conditions: acceptor 1.6%, PINE-DEX #100 donor 4%, one unit/g donor, 30° C., pH 6.0, 24 hours
Procedure: as §1

SMILES: O=C[C@@H](O)[C@H](O)[C@@H](O)CO [L-Xylose, L-xylose]
- Product of saccharide transferring reaction, Enzyme of C9 strain [1]: ++ (a saccharide-transferred product was detected in an amount of at least ten percent through transferring reaction to acceptor)
- Product of saccharide transferring reaction, Enzyme of C11 strain [2]: ++ (a saccharide-transferred product was detected in an amount of at least ten percent through transferring reaction to acceptor)

SMILES: O=C(CO)[C@@H](O)[C@H](O)[C@H](O)CO [D-Fructose, D-fructose]
- Product of saccharide transferring reaction, Enzyme of C9 strain [1]: + (a saccharide-transferred product was detected in an amount of at least one percent but less than ten percent through transferring reaction to acceptor)
- Product of saccharide transferring reaction, Enzyme of C11 strain [2]: + (a saccharide-transferred product was detected in an amount of at least one percent but less than ten percent through transferring reaction to acceptor)

SMILES: OC[C@@H](O)[C@@H](O)[C@H](O)[C@@H](O)CO [Sorbitol, sorbitol]
- Product of saccharide transferring reaction, Enzyme of C9 strain [1]: −
- Product of saccharide transferring reaction, Enzyme of C11 strain [2]: −

SMILES: OC[C@H]1O[C@@H](OC[C@H]2OC(O)[C@H](O)[C@@H](O)[C@@H]2O)[C@H](O)[C@@H](O)[C@@H]1O (stereo partly drawn) [Gentibiose, gentibiose]
- Product of saccharide transferring reaction, Enzyme of C9 strain [1]: ++ (a saccharide-transferred product was detected in an amount of at least ten percent through transferring reaction to acceptor)
- Product of saccharide transferring reaction, Enzyme of C11 strain [2]: ++ (a saccharide-transferred product was detected in an amount of at least ten percent through transferring reaction to acceptor)

SMILES: O=C[C@@H](O)[C@H](O)[C@H](O)CO [D-Arabinose, D-arabinose]
- Product of saccharide transferring reaction, Enzyme of C9 strain [1]: ± (a saccharide-transferred product was detected in an amount of less than one percent through transfer reaction to acceptor)
- Product of saccharide transferring reaction, Enzyme of C11 strain [2]: ± (a saccharide-transferred product was detected in an amount of less than one percent through transfer reaction to acceptor)

SMILES: OC[C@H]1O[C@@H](O[C@H]2[C@H](O)[C@@H](O)C(O)O[C@@H]2CO)[C@H](O)[C@@H](O)[C@H]1O (stereo partly drawn) [Lactose, lactose]
- Product of saccharide transferring reaction, Enzyme of C9 strain [1]: ++ (a saccharide-transferred product was detected in an amount of at least ten percent through transferring reaction to acceptor)
- Product of saccharide transferring reaction, Enzyme of C11 strain [2]: ++ (a saccharide-transferred product was detected in an amount of at least ten percent through transferring reaction to acceptor)

SMILES: OC[C@H]1O[C@@H]2O[C@H]3[C@H](O)[C@@H](O)[C@@H](O[C@H]4[C@H](O)[C@@H](O)[C@@H](O[C@H]5[C@H](O)[C@@H](O)[C@@H](O[C@H]6[C@H](O)[C@@H](O)[C@@H](O[C@H]7[C@H](O)[C@@H](O)[C@@H](O[C@H]8[C@H](O)[C@@H](O)[C@@H](O[C@H]9[C@H](O)[C@@H](O)[C@@H](O[C@H]1[C@H](O)[C@H]2O)O[C@@H]9CO)O[C@@H]8CO)O[C@@H]7CO)O[C@@H]6CO)O[C@@H]5CO)O[C@@H]4CO)O[C@@H]3CO [γ-Cyclodextrin, γ-cyclodextrin]
- Product of saccharide transferring reaction, Enzyme of C9 strain [1]: −
- Product of saccharide transferring reaction, Enzyme of C11 strain [2]: −

SMILES: O=C[C@@H](O)[C@@H](O)[C@H](O)[C@H](O)CO [D-Mannose, D-mannose]
- Product of saccharide transferring reaction, Enzyme of C9 strain [1]: −
- Product of saccharide transferring reaction, Enzyme of C11 strain [2]: −

SMILES: CC(=O)N[C@H]1C(O)O[C@H](CO)[C@@H](O)[C@@H]1O (stereo partly drawn) [N-Acetyl-glucosamine, N-acetyl-glucosamine]
- Product of saccharide transferring reaction, Enzyme of C9 strain [1]: + (a saccharide-transferred product was detected in an amount of at least one percent but less than ten percent through transferring reaction to acceptor)
- Product of saccharide transferring reaction, Enzyme of C11 strain [2]: + (a saccharide-transferred product was detected in an amount of at least one percent but less than ten percent through transferring reaction to acceptor)
